Test results reported in patent US20220062240A1, “METHODS OF TREATING CANCER USING A CLK INHIBITOR” (BioSplice Therapeutics, Inc., priority 2018, published 2022).
Read-outs that look alike come from different tables or passages of the source.

Tests used:
Type in all cases: cell-based
[1] = test system: prostate cancer (5 cell lines); test: CellTiter-Glo Viability Assay, prostate cancer; conditions: Homo sapiens
Description: (§1) Fifty-one human cancer cell lines (breast cancer (8 cell lines), colorectal cancer (6 cell lines), haematopoietic & lymphoid tumors (13 cell lines), liver cancer (3 cell lines), lung cancer (4 cell lines), ovarian cancer (4 cell lines), pancreatic cancer (8 cell lines), and prostate cancer (5 cell lines)) were tested to determine the effects of representative compounds of Formulas (I)-(XII) on cellular proliferation, as evaluated using the CellTiter-Glo® Viability Assay.
(§2) For the Cell Viability Assays, cells were plated at 300-3,000 cells/well in 384-well plates in their respective media containing 1% Penicillin-Streptomycin and incubated for four days at 37° C. and 5% CO2. Twenty-eight replicates of DMSO-treated cells served as controls and cells treated with compound were performed in duplicate.
(§3) After incubation, 10 μL of CellTiter-Glo® (Promega) was added to each well allowed to incubate for approximately 12 minutes. This reagent results in cell lysis and generation of a luminescent signal proportional to the amount of ATP present. The amount of ATP is directly proportional to the number of metabolically active, viable cells present in culture. The CellTiter-Glo® Assay generates a luminescent signal, produced by the luciferase reaction (Promega.com).
(§4) After incubation, the luminescence signal was read using an EnVision™ Multilabel Plate Reader (Perkin Elmer). Dose-response curves were generated and EC50 concentration values were calculated using Dotmatics' Studies Software (Bishops Stortford, UK).

[2] = test system: ovarian cancer (4 cell lines); test: CellTiter-Glo Viability Assay, ovarian cancer; conditions: Homo sapiens
Description: as §1, §2, §3, §4

[3] = test system: lung cancer (4 cell lines); test: CellTiter-Glo Viability Assay, lung cancer; conditions: Homo sapiens
Description: as §1, §2, §3, §4

[4] = test system: haematopoietic & lymphoid tumors (13 cell lines); test: CellTiter-Glo Viability Assay, haematopoietic & lymphoid tumors; conditions: Homo sapiens
Description: as §1, §2, §3, §4

[5] = test system: liver cancer (3 cell lines); test: CellTiter-Glo Viability Assay, liver cancer; conditions: Homo sapiens
Description: as §1, §2, §3, §4

[6] = test system: pancreatic cancer (8 cell lines); test: CellTiter-Glo Viability Assay, pancreatic cancer; conditions: Homo sapiens
Description: as §1, §2, §3, §4

[7] = test system: colorectal cancer (6 cell lines); test: CellTiter-Glo Viability Assay, colorectal cancer; conditions: Homo sapiens
Description: as §1, §2, §3, §4

[8] = test system: DU4475; test: CellTiter-Glo Viability Assay, breast cancer; conditions: Homo sapiens, DU-4475, 96 h
Description: as §1, §2, §3, §4

[9] = test system: BT-549; test: CellTiter-Glo Viability Assay, breast cancer; conditions: Homo sapiens, BT-549, 96 h
Description: as §1, §2, §3, §4

[10] = test system: MDA-MB-231-Luc; test: CellTiter-Glo Viability Assay, breast cancer; conditions: Homo sapiens, 96 h
Description: as §1, §2, §3, §4

[11] = test system: MCF7; test: CellTiter-Glo Viability Assay, breast cancer; conditions: Homo sapiens, MCF7, 96 h
Description: as §1, §2, §3, §4

[12] = test system: ZR-75-1; test: CellTiter-Glo Viability Assay, breast cancer; conditions: Homo sapiens, ZR-75-1, 96 h
Description: as §1, §2, §3, §4

[13] = test system: HCC1599; test: CellTiter-Glo Viability Assay, breast cancer; conditions: Homo sapiens, HCC1599, 96 h
Description: as §1, §2, §3, §4

[14] = test system: CAMA1; test: CellTiter-Glo Viability Assay, breast cancer; conditions: Homo sapiens, CAMA-1, 96 h
Description: as §1, §2, §3, §4

[15] = test system: T47D; test: CellTiter-Glo Viability Assay, breast cancer; conditions: Homo sapiens, 96 h
Description: as §1, §2, §3, §4

CN1CCN(c2cc(C(=O)Nc3cc4cc(-c5cnn(C)c5)ccc4cn3)ccn2)CC1 [Compound 12]
EC50 ([1]; 22Rv1, read-out: Prostate cancer EC50 22Rv1): 191 nM
EC50 ([1]; DU-145, read-out: Prostate cancer EC50 Du-145): 377 nM
EC50 ([1]; LNCaP-Clone-FGC, read-out: Prostate cancer EC50 LNCap clone FGC): 329 nM
EC50 ([1]; PC-3, read-out: Prostate cancer EC50 PC3): 237 nM
EC50 ([1]; VCaP, read-out: Prostate cancer EC50 VCaP (Sigma)): 462 nM
EC50 ([2]; OV-90, read-out: Ovarian cancer, EC50 (μM) OV-90): 0.456 µM
EC50 ([2]; OVCAR-3, read-out: Ovarian cancer, EC50 (μM) OVCAR-3): 0.113 µM
EC50 ([2]; PA-1, read-out: Ovarian cancer, EC50 (μM) PA1): 0.172 µM
EC50 ([2]; TOV112D, read-out: Ovarian cancer, EC50 (μM) TOV-112D): 0.152 µM
EC50 ([3]; A-427, read-out: Lung cancer, EC50 (μM) A427): 0.277 µM
EC50 ([3]; HCC78, read-out: Lung cancer, EC50 (μM) HCC-78): 0.326 µM
EC50 ([3]; NCI-H460, read-out: Lung cancer, EC50 (μM) NCI-H460): 0.261 µM
EC50 ([3]; NCI-H522, read-out: Lung cancer, EC50 (μM) NCI-H522): 0.133 µM
EC50 ([4]; DND41, read-out: Haematopoietic & Lymphoid tumors, EC50 (μM) DND-41): 0.208 µM
EC50 ([4]; HL-60, read-out: Haematopoietic & Lymphoid tumors, EC50 (μM) HL-60): 0.518 µM
EC50 ([4]; JM1, read-out: Haematopoietic & Lymphoid tumors, EC50 (μM) JM1): 0.095 µM
EC50 ([4]; JeKo-1, read-out: Haematopoietic & Lymphoid tumors, EC50 (μM) JeKo-1): 0.081 µM
EC50 ([4]; Jurkat, read-out: Haematopoietic & Lymphoid tumors, EC50 (μM) JURKAT, Clone E6-1): 0.412 µM
EC50 ([4]; Kasumi 1, read-out: Haematopoietic & Lymphoid tumors, EC50 (μM) KASUMI-1): 0.156 µM
EC50 ([4]; MOLT-4, read-out: Haematopoietic & Lymphoid tumors, EC50 (μM) MOLT-4): 0.302 µM
EC50 ([4]; MV4-11, read-out: Haematopoietic & Lymphoid tumors, EC50 (μM) MV-4-11): 0.082 µM
EC50 ([4]; Rec1, read-out: Haematopoietic & Lymphoid tumors, EC50 (μM) REC-1): 0.075 µM
EC50 ([4]; SU-DHL-4, read-out: Haematopoietic & Lymphoid tumors, EC50 (μM) SUDHL4): 0.335 µM
EC50 ([4]; TF-1, read-out: Haematopoietic & Lymphoid tumors, EC50 (μM) TF-1): 0.386 µM
EC50 ([4]; Toledo, read-out: Haematopoietic & Lymphoid tumors, EC50 (μM) TOLEDO): 0.101 µM
EC50 ([4]; read-out: Haematopoietic & Lymphoid tumors, EC50 (μM) Loucy): 0.155 µM
EC50 ([5]; HepG2, read-out: Liver cancer, EC50 HEPG2): 309 nM
EC50 ([5]; PLC-PRF-5, read-out: Liver cancer, EC50 PLC/PRF/5): 465 nM
EC50 ([5]; SNU-398, read-out: Liver cancer, EC50 SNU398): 62 nM
EC50 ([6]; BXPC-3, read-out: Pancreatic cancer, EC50 BxPC3): 420 nM
EC50 ([6]; CAPAN-1, read-out: Pancreatic cancer, EC50 Capan1): 343 nM
EC50 ([6]; Capan-2, read-out: Pancreatic cancer, EC50 Capan2): 415 nM
EC50 ([6]; MIA PaCa-2, read-out: Pancreatic cancer, EC50 MIA PaCa-2): 131 nM
EC50 ([6]; PANC-1, read-out: Pancreatic cancer, EC50 PANC-1): 294 nM
EC50 ([6]; Panc 05.04, read-out: Pancreatic cancer, EC50 PANC 05.04): 340 nM
EC50 ([6]; read-out: Pancreatic cancer, EC50 UPAFII): 153 nM
EC50 ([7]; DLD-1, read-out: Colorectal cancer, EC50 (μM) DLD-1): 0.183 µM
EC50 ([7]; HCT-116, read-out: Colorectal cancer, EC50 (μM) HCT116): 0.138 µM
EC50 ([7]; HT-29, read-out: Colorectal cancer, EC50 (μM) HT29): 0.291 µM
EC50 ([7]; SW48, read-out: Colorectal cancer, EC50 (μM) SW48): 0.09 µM
EC50 ([7]; SW480, read-out: Colorectal cancer, EC50 (μM) SW480): 0.159 µM
EC50 ([7]; SW-620, read-out: Colorectal cancer, EC50 (μM) SW620): 0.114 µM
EC50 [8]: 182 nM
EC50 [9]: 231 nM
EC50 [10]: 304 nM
EC50 [11]: 600 nM
EC50 [12]: 361 nM
EC50 [13]: 103 nM
EC50 [14]: 347 nM
EC50 [15]: 427 nM
